Experimental data as given in patent publication US20130096067A1, “DROSOPHILA TUMOR STEM CELL MODEL AND USES THEREOF” (priority 2011, published 2013).
Like-named read-outs stand apart in the source and are kept apart here. Square brackets hold non-standard residues; d marks the D form. Peptide text beside a SMILES is read from it. * marks the point of attachment. Phe(ol) = N[C@H](CO)Cc1ccccc1; Cbz = O=C(OCc1ccccc1)*; Aib = CC(C)(N)C(=O)O

System: Raf-1^gof intestinal tumors
Settings: for Log2 (fold) of luciferase activity relative to DMSO controls / Fold (luciferase activity relative to DMSO controls): ICCB compounds fed in vials to flies with one-day old Raf-1^gof tumors; for Fold: luciferase relative to DMSO, fed three consecutive days in vials
[1] = screen of 480 ICCB compounds in vials, compounds fed to flies with one-day old Raf-1^gof tumors, assessed three days later, esg-Gal4 luciferase
[2] = screen of 480 ICCB compounds in vials, compounds fed to flies with one-day old Raf-1^gof tumors, assessed three days later, esg-Gal4 luciferase, averaged from multiple wells
[3] = assessed three days later, averaged from multiple wells
[4] = Table 3 summary of hits, Screen ICCB
Throughout, for Fold (luciferase activity relative to DMSO controls): test concentration or dose not given here.
Throughout, for Fold (luciferase activity, fold difference relative to DMSO controls): test concentration or dose not given here.
Throughout, for Log2 (fold) (luciferase activity, log2 of the fold difference relative to DMSO controls): test concentration or dose not given here.
Throughout, for Log2 (fold) of luciferase activity relative to DMSO controls: test concentration or dose not given here.

Row | Structure (SMILES) | Log2 (fold) (luciferase activity, log2 of the fold difference relative to DMSO controls) [1] | Fold (luciferase activity, fold difference relative to DMSO controls) [2] | Log2 (fold) of luciferase activity relative to DMSO controls (assessed three days later) | Fold (luciferase activity relative to DMSO controls) [3] [fold] | other results
1 | COc1cc2c(cc1OC)-c1c/c(=N\c3c(C)cc(C)cc3C)n(C)c(=O)n1CC2 [Trequinsin] | −0.279 | 0.824 | – | – | –
2 | N#CC(C#N)=Cc1ccc(O)cc1 [Tyrphostin-8] | – | – | – | – | Fold (luciferase activity, fold difference relative to DMSO controls) (in vivo): 0.796; Log2 (fold) (luciferase activity, log2 of the fold difference relative to DMSO controls) (in vivo): −0.329
3 | COc1ccc2c(c1)CC[C@@H]1[C@@H]2CC[C@]2(C)[C@@H](NCCCCCCN3C(=O)C=CC3=O)CC[C@@H]12 [U73122] | −0.865 | 0.549 | – | – | –
4 | N#CC(=C(/N)Sc1ccccc1N)/C(C#N)=C(/N)Sc1ccccc1N [U-0126] | – | – | −0.023 | 0.984 | –
5 | C1CCC(N=C(NC23CC4CC(CC(C4)C2)C3)N2CCOCC2)CC1.Cl [U-37883A] | −0.572 | 0.673 | – | – | –
6 | CCCCC[C@H](O)/C=C/[C@@H]1[C@@H](C/C=C\CCCC(=O)O)[C@H]2CO[C@@H]1C2 [U-46619] | – | – | −0.063 | 0.957 | –
7 | C[C@]12C=CC(=O)C=C1CC[C@@H]1C2=CC[C@]2(C)[C@@H](C(=O)CN3CCN(c4cc(N5CCCC5)nc(N5CCCC5)n4)CC3)CC[C@@H]12.O=C(O)/C=C\C(=O)O [U-74389G] | −0.462 | 0.726 | – | – | –
8 | CCCCC/C=C\C[C@@H](O)/C=C/c1cccc(C[C@@H](O)CCCCO)n1 [U-75302] | – | – | −0.041 | 0.972 | –
9 | Cc1c(C(=O)c2cccc3ccccc23)c2cccc3c2n1[C@H](CN1CCOCC1)CO3 [WIN 55,212-2] | −0.305 | 0.810 | – | – | –
10 | Cc1cccc(Nc2cc(Cl)nc(SCC(=O)O)n2)c1C [WY-14643] | – | – | 0.020 | 1.014 | –
11 | C1CCC[C@H]2CCCN3CC[C@@H](CCCCCC[C@@H]4CCCN5CC[C@@H](CC1)O[C@@H]45)O[C@@H]23 [Xestospongin C] | −0.456 | 0.729 | – | – | –
12 | C[C@@H](N)[C@H]1CC[C@H](C(=O)Nc2ccncc2)CC1 [Y-27632] | −0.380 | 0.768 | – | – | –
13 | COc1ccc(CCN(C)CCc2ccc(OC)c(OC)c2)cc1OC [YS035] | – | – | −0.152 | 0.900 | –
14 | O=C[C@@H]1CCCN1C(=O)[C@@H]1CCCN1C(=O)OCc1ccccc1 [Z-prolyl-prolinal] (Cbz-Pro-Pro-aldehyde) | −0.692 | 0.619 | – | – | –
15 | CC(C)C[C@@H](/C=C/S(C)(=O)=O)NC(=O)[C@H](CC(C)C)NC(=O)[C@H](CC(C)C)NC(=O)OCc1ccccc1 [ZL3VS] | −0.513 | 0.701 | – | – | –
16 | CC(O)(C(=O)Nc1ccc(S(=O)(=O)c2ccccc2)cc1)C(F)(F)F (stereo not drawn) [ZM226600] | – | – | −0.117 | 0.922 | –
17 | Cc1ccc(NC(=O)c2cccc(N(C)C)c2)cc1NC(=O)c1ccc(O)cc1 [ZM336372] | −0.338 | 0.791 | – | – | –
18 | CC(=O)N[C@@H](CSCC=C(C)CCC=C(C)CCC=C(C)C)C(=O)O [acetyl (N)-s-farnesyl-1-cysteine] | – | – | −0.036 | 0.975 | –
19 | CC(=O)NC(C)(C)C(=O)N1CCC[C@H]1C(=O)NC(C)(C)C(=O)N[C@@H](C)C(=O)NC(C)(C)C(=O)N[C@@H](C)C(=O)N[C@@H](CCC(N)=O)C(=O)NC(C)(C)C(=O)N[C@H](C(=O)NC(C)(C)C(=O)NCC(=O)N[C@@H](CC(C)C)C(=O)NC(C)(C)C(=O)N1CCC[C@H]1C(=O)N[C@H](C(=O)NC(C)(C)C(=O)NC(C)(C)C(=O)N[C@@H](CCC(=O)O)C(=O)N[C@@H](CCC(N)=O)C(=O)N[C@H](CO)Cc1ccccc1)C(C)C)C(C)C [alamethicin, reference compound] (Ac-[Aib]P[Aib]A[Aib]AQ[Aib]V[Aib]GL[Aib]PV[Aib][Aib]EQ[Phe(ol)]) | −1.167 | 0.445 | – | – | Fold [4]: 0.445 fold
20 | COc1ccc(C[C@H]2NC[C@H](O)[C@H]2OC(C)=O)cc1 [anisomycin] | – | – | −0.148 | 0.902 | –

Row | Structure (SMILES) | Log2 (fold) (luciferase activity, log2 of the fold difference relative to DMSO controls) [1] | Fold (luciferase activity, fold difference relative to DMSO controls) [2] | Log2 (fold) of luciferase activity relative to DMSO controls (assessed three days later) | Fold (luciferase activity relative to DMSO controls) [3] [fold] | other results
21 | COc1cccc2c1cc([N+](=O)[O-])c1c(C(=O)O)cc3c(c12)OCO3 [aristolochic acid, reference compound] | −1.243 | 0.422 | – | – | Fold [4]: 0.422 fold
22 | CC[C@@H]1/C=C(\C)C[C@H](C)C[C@H](OC)[C@H]2O[C@@](O)(C(=O)C(=O)N3CCCC[C@H]3C(=O)O[C@H](/C(C)=C/[C@@H]3CC[C@@H](O)[C@H](OC)C3)[C@H](C)[C@@H](O)CC1=O)[C@H](C)C[C@@H]2OC [ascomycin (FK-520)] | – | – | −0.035 | 0.976 | –
23 | CO/C1=C\C(C)=C\[C@@H](C)[C@@H](O)[C@@H](C)C/C(C)=C/C=C/[C@H](OC)[C@@H]([C@@H](C)[C@@H](O)[C@H](C)[C@@]2(O)C[C@@H](O)[C@H](C)[C@@H](C(C)C)O2)OC1=O [bafilomycin A1] | −0.234 | 0.850 | – | – | –
24 | CC1(C)CCC2=C(O1)c1ccccc1C(=O)C2=O [beta-lapachone] | – | – | 0.070 | 1.050 | –
25 | CC(C)(Oc1ccc(CCNC(=O)c2ccc(Cl)cc2)cc1)C(=O)O [bezafibrate] | – | – | −0.211 | 0.864 | –
26 | CO[C@H](C/C=C\C=C\CC/C=C/C[C@H](C)/C=C/C(=C\C(=O)O)CC(=O)O)/C(C)=C\C=C(/C)C(=O)O [bongkrekic acid] | – | – | −0.102 | 0.932 | –
27 | C[C@H]1CCC/C=C/[C@@H]2C[C@H](O)C[C@H]2[C@H](O)/C=C/C(=O)O1 [brefeldin A] | −0.422 | 0.746 | – | – | –
28 | CCCCNc1cc(C(=O)O)cc(S(N)(=O)=O)c1Oc1ccccc1 [bumetanide] | – | – | −0.048 | 0.967 | –
29 | CCCC[C@@H](C=O)NC(=O)[C@H](CC(C)C)NC(=O)OCc1ccccc1 [calpeptin] | −0.235 | 0.849 | – | – | –
30 | COC[C@@H]([C@H](O)[C@H](O)C(=O)NCC[C@H](C)c1nc(/C=C/C[C@@H]2O[C@]3(C[C@@H](O)[C@@H]2C)O[C@H]([C@H](C[C@H](O)[C@H](C)[C@H](O)[C@H](C)/C=C(C)/C(C)=C/C=C/C(C)=C\C#N)OC)[C@H](OP(=O)(O)O)C3(C)C)co1)N(C)C [calyculin A, reference compound] | −1.276 | 0.413 | – | – | Fold [4]: 0.413 fold
31 | CC[C@@]1(O)C(=O)OCc2c1cc1n(c2=O)Cc2cc3ccccc3nc2-1 [camptothecin, reference compound] | – | – | – | – | Log2 (fold) [4]: −1.619
32 | Oc1cc2c(cc1O)CN(C(=S)NCCc1ccc(Cl)cc1)CCC2 [capsazepine] | – | – | −0.030 | 0.979 | –
33 | O[C@H]1[C@H](O)[C@@H](O)CN2CC[C@H](O)[C@H]12 [castanospermine] | −0.351 | 0.784 | – | – | –
34 | Clc1cccc(Cl)c1N=C1NCCN1 [clonidine] | – | – | 0.087 | 1.062 | –
35 | CN1CCN(C2=Nc3cc(Cl)ccc3Nc3ccccc32)CC1 [clozapine] | – | – | −0.126 | 0.916 | –
36 | C[C@@H]1C[C@@H]([C@H](O)CC2CC(=O)NC(=O)C2)C(=O)[C@@H](C)C1 [cycloheximide, reference compound] | −1.568 | 0.337 | – | – | Fold [4]: 0.337 fold
37 | CCOC(=O)CN1C(=O)CC(C[C@@H](O)[C@@H]2C[C@@H](C)C[C@H](C)C2=O)CC1=O [cycloheximide-N-ethylethanoate] | – | – | −0.014 | 0.990 | –
38 | C=C1[C@@H](C)[C@H]2[C@H](Cc3ccccc3)NC(=O)[C@]23OC(=O)/C=C/[C@H](O)CCC[C@@H](C)C/C=C/[C@H]3[C@@H]1O [cytochalasin B] | −0.677 | 0.625 | – | – | –
39 | C=C1[C@@H](C)[C@H]2[C@H](Cc3ccccc3)NC(=O)[C@]23[C@H](OC(C)=O)/C=C/[C@@](C)(O)C(=O)[C@@H](C)C/C=C/[C@H]3[C@@H]1O [cytochalasin D] | −0.276 | 0.826 | – | – | –
